The values that follow come from ChEMBL document CHEMBL1139197, “Synthesis, structural analysis, and SAR studies of triazine derivatives as potent, selective Tie-2 inhibitors” (Bioorg Med Chem Lett, 2007).

Converted amounts (≈) assume the structure as drawn.

Series [1] concerns the target T1, Angiopoietin-1 receptor (Homo sapiens, UniProt Q02763). The series can be described thus: Inhibition of Tie2 after 90 mins by HTRF assay.
The target in series [2] is T2, Vascular endothelial growth factor receptor 2 (Homo sapiens, UniProt P35968). Briefly: Inhibition of KDR after 90 mins by HTRF assay.
T2 sequence (P35968 whole entry): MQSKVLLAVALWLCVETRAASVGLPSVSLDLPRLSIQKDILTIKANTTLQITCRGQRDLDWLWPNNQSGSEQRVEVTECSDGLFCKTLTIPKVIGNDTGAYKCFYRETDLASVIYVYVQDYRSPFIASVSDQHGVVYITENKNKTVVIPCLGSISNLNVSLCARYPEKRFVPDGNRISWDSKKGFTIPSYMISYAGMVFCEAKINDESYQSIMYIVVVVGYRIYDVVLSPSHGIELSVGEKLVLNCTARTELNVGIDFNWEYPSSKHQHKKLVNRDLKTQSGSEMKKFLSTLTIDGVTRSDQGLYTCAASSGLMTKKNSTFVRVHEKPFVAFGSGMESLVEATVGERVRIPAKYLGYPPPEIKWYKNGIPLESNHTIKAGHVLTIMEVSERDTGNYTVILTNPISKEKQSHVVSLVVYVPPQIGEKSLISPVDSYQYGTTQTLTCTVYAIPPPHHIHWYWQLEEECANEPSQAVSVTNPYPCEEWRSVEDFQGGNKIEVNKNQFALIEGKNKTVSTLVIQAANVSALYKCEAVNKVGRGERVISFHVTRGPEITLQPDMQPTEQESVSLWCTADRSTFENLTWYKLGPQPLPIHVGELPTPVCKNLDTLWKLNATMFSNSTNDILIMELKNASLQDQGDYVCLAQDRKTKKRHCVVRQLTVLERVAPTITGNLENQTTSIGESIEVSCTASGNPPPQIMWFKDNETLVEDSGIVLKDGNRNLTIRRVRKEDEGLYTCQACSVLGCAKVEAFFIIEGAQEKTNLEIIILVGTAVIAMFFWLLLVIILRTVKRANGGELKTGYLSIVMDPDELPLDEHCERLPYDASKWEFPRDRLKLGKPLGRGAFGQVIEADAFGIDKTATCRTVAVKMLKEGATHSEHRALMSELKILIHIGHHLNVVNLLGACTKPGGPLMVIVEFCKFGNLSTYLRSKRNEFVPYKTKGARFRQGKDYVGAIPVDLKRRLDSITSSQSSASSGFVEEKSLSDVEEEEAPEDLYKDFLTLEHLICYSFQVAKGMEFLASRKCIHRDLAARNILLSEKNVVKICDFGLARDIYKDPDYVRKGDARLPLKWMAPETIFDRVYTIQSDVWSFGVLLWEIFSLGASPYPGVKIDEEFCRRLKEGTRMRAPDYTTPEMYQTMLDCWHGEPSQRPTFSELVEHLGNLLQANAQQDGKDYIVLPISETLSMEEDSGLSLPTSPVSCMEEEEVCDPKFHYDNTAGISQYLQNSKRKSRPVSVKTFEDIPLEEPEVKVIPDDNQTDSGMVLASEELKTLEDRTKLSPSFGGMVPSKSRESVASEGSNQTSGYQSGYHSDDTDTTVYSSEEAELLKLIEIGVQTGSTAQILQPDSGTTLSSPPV
Series [3] is described as follows: Clearance in Sprague-Dawley rat at 2 mg/kg, iv. The settings on record: in vivo. It is filed as ADME, organism-based. Set-up: dose 2 mg/kg, route intravenous.
Series [4] can be described thus: Half life in Sprague-Dawley rat at 2 mg/kg, iv. It is filed as ADME, organism-based. Set-up: dose 2 mg/kg, route intravenous. As to conditions: in vivo.
A short description of series [5]: Mean residence time in Sprague-Dawley rat. It is filed as ADME, organism-based. As to conditions: in vivo.
Series [6] concerns the target T1, Angiopoietin-1 receptor. Briefly: Inhibition of Tie2 autophosphorylation in EA.hy926 cells after […]. It is filed as cell-based.
The target in series [7] is T2, Vascular endothelial growth factor receptor 2. Briefly: Inhibition of KDR autophosphorylation in EA.hy926 cells after […]. In kind it is cell-based.
Series [8] deals with Vascular endothelial growth factor receptor 2 and tyrosine-protein kinase TIE-2 (KDR and TIE2) (Homo sapiens) (UniProt P35968+Q02763). The series can be described thus: Selectivity for Tie2 over KDR in cell based autophosphorylation assay.
Vascular endothelial growth factor receptor 2 and tyrosine-protein kinase TIE-2 (KDR and TIE2) (Homo sapiens), sequence (P35968 whole entry, looked up): as the sequence (P35968 whole entry) above
Vascular endothelial growth factor receptor 2 and tyrosine-protein kinase TIE-2 (KDR and TIE2) (Homo sapiens), sequence (Q02763 whole entry, looked up): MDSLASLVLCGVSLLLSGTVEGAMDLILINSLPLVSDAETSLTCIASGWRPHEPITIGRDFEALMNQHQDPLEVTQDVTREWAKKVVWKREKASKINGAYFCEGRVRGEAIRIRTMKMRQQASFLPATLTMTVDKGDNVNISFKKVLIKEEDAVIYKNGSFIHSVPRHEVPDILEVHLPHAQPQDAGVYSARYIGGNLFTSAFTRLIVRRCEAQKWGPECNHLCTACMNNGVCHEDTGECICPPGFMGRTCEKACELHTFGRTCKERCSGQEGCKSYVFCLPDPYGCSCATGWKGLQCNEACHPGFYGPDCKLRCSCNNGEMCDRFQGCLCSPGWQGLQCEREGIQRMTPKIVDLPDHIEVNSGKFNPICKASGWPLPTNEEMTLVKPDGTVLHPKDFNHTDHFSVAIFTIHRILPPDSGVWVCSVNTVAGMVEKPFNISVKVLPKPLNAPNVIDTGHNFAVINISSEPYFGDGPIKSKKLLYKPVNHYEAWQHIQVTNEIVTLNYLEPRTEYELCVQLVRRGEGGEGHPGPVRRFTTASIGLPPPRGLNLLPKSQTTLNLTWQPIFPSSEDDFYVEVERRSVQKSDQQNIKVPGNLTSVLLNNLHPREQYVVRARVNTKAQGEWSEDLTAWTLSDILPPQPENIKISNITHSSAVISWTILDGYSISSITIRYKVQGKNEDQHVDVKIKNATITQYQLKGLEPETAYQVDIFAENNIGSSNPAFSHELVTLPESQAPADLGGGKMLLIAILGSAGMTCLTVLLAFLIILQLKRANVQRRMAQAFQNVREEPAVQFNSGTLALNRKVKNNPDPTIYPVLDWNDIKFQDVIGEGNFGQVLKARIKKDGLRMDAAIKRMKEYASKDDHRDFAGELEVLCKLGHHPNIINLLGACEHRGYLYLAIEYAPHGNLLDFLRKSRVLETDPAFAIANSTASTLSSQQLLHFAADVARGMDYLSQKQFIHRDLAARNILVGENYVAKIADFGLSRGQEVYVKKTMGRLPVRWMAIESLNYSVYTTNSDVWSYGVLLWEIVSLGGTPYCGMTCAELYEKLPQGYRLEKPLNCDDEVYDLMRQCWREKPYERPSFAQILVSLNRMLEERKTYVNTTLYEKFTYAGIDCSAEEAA
The target in series [9] is T3, Mitogen-activated protein kinase 14 (Homo sapiens, UniProt Q16539). Briefly: Inhibition of p38-alpha by radioactive filtration assay.
T3 sequence (Q16539 whole entry): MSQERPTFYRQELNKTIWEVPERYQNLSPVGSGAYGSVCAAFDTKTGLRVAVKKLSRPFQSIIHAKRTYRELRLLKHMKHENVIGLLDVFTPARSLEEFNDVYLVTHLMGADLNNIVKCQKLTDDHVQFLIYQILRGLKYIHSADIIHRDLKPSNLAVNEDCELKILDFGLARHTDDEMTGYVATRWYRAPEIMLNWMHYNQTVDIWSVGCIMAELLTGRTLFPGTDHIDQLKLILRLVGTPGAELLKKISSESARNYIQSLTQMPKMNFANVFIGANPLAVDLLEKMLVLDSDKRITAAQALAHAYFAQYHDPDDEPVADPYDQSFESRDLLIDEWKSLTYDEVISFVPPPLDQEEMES
Series [10] deals with Tyrosine-protein kinase Lck (Homo sapiens, UniProt P06239). The series can be described thus: Inhibition of Lck by radioactive filtration assay.
Tyrosine-protein kinase Lck, sequence (P06239 whole entry): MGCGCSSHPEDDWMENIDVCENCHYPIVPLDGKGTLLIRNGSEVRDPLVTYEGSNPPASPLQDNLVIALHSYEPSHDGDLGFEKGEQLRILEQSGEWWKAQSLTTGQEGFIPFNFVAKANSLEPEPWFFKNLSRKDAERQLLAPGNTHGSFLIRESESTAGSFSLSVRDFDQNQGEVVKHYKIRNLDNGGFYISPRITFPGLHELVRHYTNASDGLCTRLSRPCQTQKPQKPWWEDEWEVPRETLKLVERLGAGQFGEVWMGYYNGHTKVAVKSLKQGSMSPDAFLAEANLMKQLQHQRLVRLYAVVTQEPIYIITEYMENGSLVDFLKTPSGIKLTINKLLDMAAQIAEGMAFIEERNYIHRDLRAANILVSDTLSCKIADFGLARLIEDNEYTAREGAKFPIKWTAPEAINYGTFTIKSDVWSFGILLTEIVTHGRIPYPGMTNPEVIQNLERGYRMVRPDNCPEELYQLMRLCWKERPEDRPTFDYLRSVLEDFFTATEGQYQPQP
Series [11] concerns the target Tyrosine-protein kinase JAK2 (Homo sapiens, UniProt O60674). The series can be described thus: Inhibition of Jak2 by radioactive filtration assay.
Series [12] has as its target Proto-oncogene tyrosine-protein kinase Src (Homo sapiens, UniProt P12931). The series can be described thus: Inhibition of Src by radioactive filtration assay.
Series [13] deals with Fibroblast growth factor receptor (Homo sapiens, UniProt P22607+P11362+P22455+P21802). The series can be described thus: Inhibition of FGFR by radioactive filtration assay. It is filed as protein assay.
In series [14] the target is Mast/stem cell growth factor receptor Kit (Homo sapiens, UniProt P10721). The series can be described thus: Inhibition of cKit by radioactive filtration assay.
Mast/stem cell growth factor receptor Kit, sequence (P10721 whole entry): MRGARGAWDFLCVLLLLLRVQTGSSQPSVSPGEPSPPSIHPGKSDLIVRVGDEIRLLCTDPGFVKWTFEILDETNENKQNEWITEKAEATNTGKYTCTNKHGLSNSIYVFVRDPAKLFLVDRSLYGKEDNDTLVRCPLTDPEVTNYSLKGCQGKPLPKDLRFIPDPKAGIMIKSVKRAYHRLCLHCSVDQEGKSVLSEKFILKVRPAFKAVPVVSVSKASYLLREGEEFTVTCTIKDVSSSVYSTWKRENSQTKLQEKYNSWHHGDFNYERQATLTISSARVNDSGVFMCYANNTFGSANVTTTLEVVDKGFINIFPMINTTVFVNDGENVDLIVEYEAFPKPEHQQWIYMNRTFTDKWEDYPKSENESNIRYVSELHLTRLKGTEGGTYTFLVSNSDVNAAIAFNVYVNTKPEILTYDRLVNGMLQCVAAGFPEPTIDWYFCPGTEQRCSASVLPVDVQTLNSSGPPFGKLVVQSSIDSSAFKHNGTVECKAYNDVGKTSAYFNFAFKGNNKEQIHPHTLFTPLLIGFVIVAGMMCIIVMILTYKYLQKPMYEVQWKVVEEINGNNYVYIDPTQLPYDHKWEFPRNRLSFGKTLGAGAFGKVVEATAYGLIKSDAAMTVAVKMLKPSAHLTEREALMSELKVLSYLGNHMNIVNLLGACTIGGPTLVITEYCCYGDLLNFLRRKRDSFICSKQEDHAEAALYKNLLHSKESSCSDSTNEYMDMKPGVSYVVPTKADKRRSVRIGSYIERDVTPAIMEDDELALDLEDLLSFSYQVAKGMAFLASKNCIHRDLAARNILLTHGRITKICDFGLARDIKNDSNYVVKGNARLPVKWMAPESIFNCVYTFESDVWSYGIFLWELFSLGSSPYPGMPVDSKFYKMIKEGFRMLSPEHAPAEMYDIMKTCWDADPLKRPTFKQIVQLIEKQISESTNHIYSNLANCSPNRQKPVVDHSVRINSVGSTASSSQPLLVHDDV
Series [15] deals with Mitogen-activated protein kinase 10 (Homo sapiens, UniProt P53779). Briefly: Inhibition of JNK3 by radioactive filtration assay.
Mitogen-activated protein kinase 10, sequence (P53779 whole entry): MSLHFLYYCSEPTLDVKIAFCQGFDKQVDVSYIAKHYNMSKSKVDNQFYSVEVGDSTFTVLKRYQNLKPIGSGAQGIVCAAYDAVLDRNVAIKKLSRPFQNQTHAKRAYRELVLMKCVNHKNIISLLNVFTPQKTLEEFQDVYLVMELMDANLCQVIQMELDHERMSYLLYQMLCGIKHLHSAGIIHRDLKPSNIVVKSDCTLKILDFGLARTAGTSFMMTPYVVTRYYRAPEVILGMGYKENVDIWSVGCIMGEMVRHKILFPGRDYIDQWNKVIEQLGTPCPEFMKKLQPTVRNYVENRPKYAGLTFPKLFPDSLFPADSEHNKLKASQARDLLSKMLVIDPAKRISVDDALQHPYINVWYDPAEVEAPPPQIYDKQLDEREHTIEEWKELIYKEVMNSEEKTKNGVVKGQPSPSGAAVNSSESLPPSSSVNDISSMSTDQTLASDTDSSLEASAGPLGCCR
A short description of series [16]: Volume of distribution in Sprague-Dawley rat at 2 mg/kg, iv. It is filed as ADME, organism-based. More on the design: dose 2 mg/kg, route intravenous. The settings on record: in vivo, read-out: Vdss.
A short description of series [17]: Oral bioavailability in Sprague-Dawley rat at 10 mg/kg, po. As to conditions: in vivo. It is filed as ADME, organism-based.
Series [18] can be described thus: Cmax in Sprague-Dawley rat at 10 mg/kg, po. In kind it is ADME, organism-based. Set-up: dose 10 mg/kg, route oral. The settings on record: in vivo.
A short description of series [19]: AUC (0 to infinity) in Sprague-Dawley rat at 10 mg/kg, po. It is filed as ADME, organism-based. More on the design: time infinity, dose 10 mg/kg, route oral. The settings on record: plasma.
The nature of series [20]: Solubility in 0.01 N HCl at pH 2.0. It is filed as physicochemical.
Series [21] in a line: Solubility in phosphate buffer at pH 7.1. It is filed as physicochemical.
Series [22] addresses T3, Mitogen-activated protein kinase 14. Briefly: Inhibition of p38-alpha in THP1 cells assessed as TNFalpha levels. It is filed as cell-based, THP-1.

T1 sequence (Q02763 whole entry): as the sequence (Q02763 whole entry, looked up) above

In the case of `CNc1nccc(-c2cccnc2Oc2cc(C(=O)Nc3cccc(C(C)C)c3)ccc2C)n1`, the IC50 in series [1] came out at 13 nM; in [2], 38 nM.

As to `CNc1ncnc(-c2cccnc2Oc2cc(NC(=O)c3cccc(C(C)C)c3)ccc2F)n1`, the IC50 in series [1] was 4 nM; in [2], 128 nM. The compound also gave a clearance in [3] of 18.4 mL/min/kg. Moreover, in [4], the half-life is 0.8 h. Besides, the MRT in series [5] stood at 0.5 h.

In the case of `CNc1cc(-c2cccnc2Oc2cc(NC(=O)c3cccc(OC(F)(F)C(F)F)c3)ccc2C)ccn1`, the IC50 in series [1] came out at 9 nM; in series [2] it was 233 nM; in series [6], 13 nM; in [7], 943 nM. Besides, in series [3], the clearance is 60.7 mL/min/kg.

Turning to `CNc1ncnc(-c2cccnc2Oc2cc(NC(=O)c3cccc(-n4cccc4)c3)ccc2C)n1`, the IC50 in [1] was 17 nM; in series [2] it was 1130 nM; in series [6], 23 nM; in series [7], 25000 nM. Moreover, the clearance in [3] was 63.8 mL/min/kg. In addition, in series [8], the Ratio IC50 is greater than 1000.

For the compound `CNc1cc(-c2cccnc2Oc2cc(NC(=O)c3cccc(C(C)C)c3)ccc2C)ccn1`, the values for the half-inhibitory concentration (IC50) in series [1], in series [2] and in series [6] were 1 nM, 18 nM and 11 nM, respectively. Also, the clearance in series [3] was 54.3 mL/min/kg.

Turning to `CNc1nccc(-c2cccnc2Oc2cc(NC(=O)c3cccc(C(C)C)c3)ccc2C)n1`, the IC50 in series [1] and in series [2] was 2 nM throughout.

As for `CNc1ncnc(-c2cccnc2Oc2cc(NC(=O)c3cccc(C(C)C)c3)ccc2C)n1`, the values for the IC50 in [1], in series [2] and in series [6] were 1 nM, 117 nM and 5 nM, respectively. In addition, the clearance in series [3] is 65.7 mL/min/kg.

Consider `CNc1ncnc(-c2cccnc2Oc2cccc(NC(=O)c3cccc(C(C)C)c3)c2)n1`, for which the values for the IC50 in [1], in series [2] and in series [6] were 6 nM, 456 nM and 85 nM, respectively. This compound also gave a clearance in series [3] of 73.7 mL/min/kg.

Consider `CNc1cc(-c2cccnc2Oc2cc(C(=O)Nc3cccc(C(C)C)c3)ccc2C)ccn1`, for which the IC50 in series [1] was 3 nM; in [2], 5 nM.

As to `CNc1cc(-c2cccnc2Oc2ccc(Cl)c(NC(=O)c3cccc(C(C)C)c3)c2)ccn1`, the IC50 in series [1] came to 6 nM; in series [2] it was 9 nM.

Take `CNc1ncnc(-c2cccnc2Oc2cc(NC(=O)c3cccc(C(F)(F)F)c3)ccc2C)n1`: the IC50 in [1] came to 20 nM; in series [2], 309 nM.

For the compound `CNc1cc(-c2cccnc2Oc2cccc(NC(=O)c3cccc(C(C)C)c3)c2)ccn1`, the IC50 in series [1] is 4 nM; in series [2], 18 nM.

Consider `CNc1ncnc(-c2cccnc2Oc2cc(NC(=O)c3cccc(OC(F)(F)C(F)F)c3)ccc2C)n1`, for which the IC50 in series [1] is 16 nM; in [2] it was 1000 nM; in [6] it was 33 nM; in [7] it was 4300 nM; in [9] it was 47 nM; in [10], 146 nM. Also, the IC50 in [11] was 1750 nM; in series [12], 2190 nM; in series [13], 5360 nM; in [14], 17800 nM; in [15], 40000 nM; in [22], 194 nM. Also, in series [3], the clearance was 14.8 mL/min/kg. The compound further showed a half-life in [4] of 1.7 h. This compound also came in with an MRT in series [5] of 1.5 h. The Vd in series [16] came to 1.31 L/kg. Moreover, in series [17], the bioavailability came out at 4%. In addition, in [18], the Cmax stood at 119 ng/mL. Moreover, the AUC(0-inf) in series [19] is 509 ng·h/mL. Besides, the solubility in series [20] stood at 21 µg/mL (≈ 39.7 µM); in series [21], 3 µg/mL (≈ 5.68 µM).

`CNc1ncnc(-c2cccnc2Oc2cc(NC(=O)c3cccc(C(C)C)c3)cc(C(F)(F)F)c2)n1`: the figures for the IC50 in [1] and in series [2] were 55 nM and 25000 nM, respectively.

Take `CNc1ncnc(-c2cccnc2Oc2cc(NC(=O)c3cccc(OC(F)(F)F)c3)ccc2C)n1`: the IC50 was 8 nM in series [1], 442 nM in series [2], 15 nM in series [6] and 540 nM in [7]. In addition, in series [3], the clearance was 83 mL/min/kg.

Turning to `CNc1ncnc(-c2cccnc2Oc2cc(C(=O)Nc3cccc(C(C)C)c3)ccc2C)n1`, the IC50 worked out at 1 nM in [1] and 20 nM in series [2].

`Cc1ccc(NC(=O)c2cccc(C(F)(F)F)c2)cc1Nc1ncccc1-c1ccncn1` gave an IC50 in series [2] of 61 nM.
